Assay results taken from the NIST ThermoML archive (doi:10.1021/je800110r).

Settings: 293.15 K, Liquid, Vibrating tube method

CCCCCCCCCC [decane]
Settings	mass density [kg/m3]
6746 kPa	735.1
6773 kPa	735
6794 kPa	734.9
6816 kPa	735
6848 kPa	735
6876 kPa	735
6897 kPa	735
6922 kPa	735.2
6945 kPa	735.2
6978 kPa	735.2
7001 kPa	735
7028 kPa	735.2
7050 kPa	735.3
7069 kPa	735.2
7097 kPa	735.2
7122 kPa	735.3
7137 kPa	735.2
7168 kPa	735.4
7187 kPa	735.3
7209 kPa	735.3
7232 kPa	735.3
7257 kPa	735.4
7276 kPa	735.4
7295 kPa	735.4
7318 kPa	735.4
7338 kPa	735.4
7360 kPa	735.4
7390 kPa	735.4
7414 kPa	735.5
7438 kPa	735.6
7460 kPa	735.5
7485 kPa	735.6
7500 kPa	735.6
7514 kPa	735.6
7532 kPa	735.5
7544 kPa	735.6
7559 kPa	735.5
7573 kPa	735.6
7586 kPa	735.6
7603 kPa	735.6
7621 kPa	735.7
7636 kPa	735.6
7649 kPa	735.6
7665 kPa	735.7
7685 kPa	735.6
7701 kPa	735.6
7716 kPa	735.6
7732 kPa	735.7
7748 kPa	735.7
7769 kPa	735.7
7789 kPa	735.7
7803 kPa	735.8
7824 kPa	735.8
7837 kPa	735.8
7854 kPa	735.8
7873 kPa	735.8
7889 kPa	735.8
7910 kPa	735.9
7929 kPa	735.9
7943 kPa	735.9
7963 kPa	735.9
7982 kPa	735.8
7997 kPa	736
8013 kPa	736.1
8030 kPa	735.9
8048 kPa	736
8065 kPa	736
8080 kPa	736
8102 kPa	735.9
8114 kPa	735.9
8137 kPa	736.1
8160 kPa	736
8178 kPa	736.1
8196 kPa	736
8213 kPa	736.1
8234 kPa	736.1
8249 kPa	736.1
8265 kPa	736.1
8289 kPa	736.2
8309 kPa	736.1
8324 kPa	736.2
8342 kPa	736.2
8357 kPa	736.1
8373 kPa	736.2
8396 kPa	736.2
8414 kPa	736.2
8435 kPa	736.2
8456 kPa	736.2
8469 kPa	736.3
8490 kPa	736.2
8512 kPa	736.2
8530 kPa	736.2
8552 kPa	736.3
8577 kPa	736.3
8591 kPa	736.3
8615 kPa	736.4
8638 kPa	736.4
8657 kPa	736.4
8679 kPa	736.3
8696 kPa	736.4
8715 kPa	736.5
8735 kPa	736.4
8752 kPa	736.4
8777 kPa	736.5
8801 kPa	736.5
8818 kPa	736.6
8844 kPa	736.5
8867 kPa	736.5
8885 kPa	736.5
8905 kPa	736.6
8925 kPa	736.5
8946 kPa	736.6
8967 kPa	736.5
8985 kPa	736.6
9006 kPa	736.6
9033 kPa	736.6
9054 kPa	736.6
9077 kPa	736.8
9098 kPa	736.6
9119 kPa	736.7
9137 kPa	736.8
9159 kPa	736.8
9178 kPa	736.8
9206 kPa	736.8
9235 kPa	736.7
9251 kPa	736.8
9280 kPa	736.9
9302 kPa	736.8
9324 kPa	737
9350 kPa	736.9
9370 kPa	736.9
9397 kPa	737
9426 kPa	736.9
9446 kPa	736.9
9469 kPa	736.9
9492 kPa	736.9
9512 kPa	737
9533 kPa	737
9562 kPa	737.1
9590 kPa	737
9615 kPa	737.1
9642 kPa	737.1
9666 kPa	737.1
9687 kPa	737.2
9718 kPa	737.2
9743 kPa	737.1
9767 kPa	737.3
9799 kPa	737.3
9821 kPa	737.3
9853 kPa	737.3
9871 kPa	737.2
9897 kPa	737.3
9920 kPa	737.3
9953 kPa	737.3
9986 kPa	737.4
10009 kPa	737.4
10042 kPa	737.4
10073 kPa	737.4
10096 kPa	737.4
10134 kPa	737.4
10165 kPa	737.6
10193 kPa	737.5
10218 kPa	737.5
10248 kPa	737.6
10278 kPa	737.6
10298 kPa	737.6
10313 kPa	737.6
10327 kPa	737.6
10344 kPa	737.6
10358 kPa	737.7
10372 kPa	737.7
10389 kPa	737.6
10406 kPa	737.7
10428 kPa	737.8
10443 kPa	737.7
10461 kPa	737.8
10481 kPa	737.6
10498 kPa	737.7
10516 kPa	737.8
10533 kPa	737.7
10550 kPa	737.8
10570 kPa	737.8
10587 kPa	737.8
10602 kPa	737.7
10625 kPa	737.8
10645 kPa	737.9
10661 kPa	737.8
10679 kPa	737.8
10697 kPa	737.9
10715 kPa	737.9
10735 kPa	737.9
10753 kPa	737.9
10768 kPa	737.8
10787 kPa	737.9
10803 kPa	737.8
10824 kPa	738
10842 kPa	738
10860 kPa	737.9
10879 kPa	738.1
10892 kPa	738
10913 kPa	738
10929 kPa	737.9
10950 kPa	738.1
10966 kPa	738
10985 kPa	738.1
11001 kPa	738.1
11023 kPa	738.1
11045 kPa	738.2
11061 kPa	738.1
11081 kPa	738.1
11094 kPa	738.1
11111 kPa	738.1
11131 kPa	738.2
11156 kPa	738.3
11170 kPa	738.1
11193 kPa	738.3
11210 kPa	738.3
11235 kPa	738.2
11255 kPa	738.1
11281 kPa	738.2
11304 kPa	738.2
11324 kPa	738.3
11348 kPa	738.3
11366 kPa	738.3
11387 kPa	738.4
11408 kPa	738.3
11425 kPa	738.4
11443 kPa	738.3
11460 kPa	738.4
11479 kPa	738.4
11492 kPa	738.4
11511 kPa	738.5
11524 kPa	738.4
11543 kPa	738.5
11560 kPa	738.4
11574 kPa	738.5
11596 kPa	738.5
11613 kPa	738.5
11628 kPa	738.4
11645 kPa	738.6
11664 kPa	738.5
11684 kPa	738.6
11701 kPa	738.6
11721 kPa	738.6
11740 kPa	738.6
11758 kPa	738.6
11775 kPa	738.6
11793 kPa	738.6
11810 kPa	738.6
11828 kPa	738.7
11845 kPa	738.7
11861 kPa	738.7
11888 kPa	738.6
11904 kPa	738.7
11927 kPa	738.7
11950 kPa	738.8
11966 kPa	738.8
11987 kPa	738.8
12010 kPa	738.7
12028 kPa	738.8
12049 kPa	738.7
12070 kPa	738.9
12089 kPa	738.8
12110 kPa	738.9
12131 kPa	738.8
12152 kPa	738.8
12170 kPa	738.8
12187 kPa	739
12201 kPa	738.9
12219 kPa	738.9
12238 kPa	738.9
12263 kPa	739.2
12285 kPa	739
12301 kPa	739
